Data set [1] deals with human leukaemia HEL cell line. As to the kind of experiment: MTT in vitro cytotoxicity assay, HEL. Type of data set: cell-based. The note with it: read-out: IC50 (µM) HEL. On the procedure: (§1) As summarized in Table 1, five cancer cell lines, including MDA-MB-231, PC3, WM9, HEL and K562 cell lines, were induced for testing the anti-cancer activities of those derivatives. The first line anti-cancer drug, vincristine, was treated as positive control. All the test compounds were dissolved in DMSO. The preliminary structure-activity relationship of all compounds against the 5 cancer cell lines was also investigated.
(§2) Human erythroleukemic cell lines HEL and K562, human breast cell lines MDA-MB-231, human prostate cell lines PC3 and human melanoma cell lines WM9 were cultured in RPMI (HEL and K562) or DMEM (MDA-MB-231, PC3, WM9) medium (high glucose) supplemented with 5% FBS (HyClone, GE Healthcare, Parramatta, Australia) and 1% ampicillin/streptomycin.
(§3) Cells were cultured in 96-well plates at densities of 1 × 10^5/well. The plates were pre-incubated at 37 °C for 24 h to allow adaptation of cells prior to the addition of the test compounds. Then, compounds were added to cells in triplicate in several doses, and incubated for an additional 2 days. The 50% inhibitory concentrations (IC50) were measured for fangchinoline derivatives using MTT (diphenyltetrazolium bromide) assay.

In data set [2] the test system is human prostate cancer PC3 cell line. Description: MTT in vitro cytotoxicity assay, PC3. Format: cell-based. The note with it: read-out: IC50 (µM) PC3. As for the experimental part:
as §1, §2, §3

Data set [3] concerns human melanoma WM9 cell line. Description: MTT in vitro cytotoxicity assay, WM9. Format: cell-based. Particulars: for IC50: Homo sapiens, read-out: IC50 (µM) WM9. On the procedure: as §1, §2, §3
Data set [4] deals with human leukaemia K562 cell line. As to the kind of experiment: MTT in vitro cytotoxicity assay, K562. Format: cell-based. The note with it: read-out: IC50 (µM) K562. On the procedure: as §1, §2, §3
Data set [5] deals with human breast cancer MDA-MB-231 cell line. As to the kind of experiment: MTT in vitro cytotoxicity assay, MDA-MB-231. Type of data set: cell-based. The note with it: read-out: IC50 (µM) MDA-MB-231. On the procedure:
as §1, §2, §3

Data set [6] in a line: Toxicity on normal human liver cell line. The note with it: HL7702 normal liver cells; normal human liver cell line HL7702; read-out: IC50 against HL7702 cell growth. Format: cell-based. As for the experimental part:
(§4) 3 fangchinoline derivatives were also tested for their toxicities on normal human liver cell line HL7702.
as §3

Data set [7] relates to normal human liver cell line HL7702. As to the kind of experiment: Toxicity on normal human liver cell line. Format: cell-based. Particulars: HL7702 versus cancer cell lines. On the procedure: as §4, §3
In a further data set the test system is WM9 cells. As to the kind of experiment: Annexin V-FITC/PI flow cytometry apoptosis assay. The note with it: 2.5 µM, 24 h. Type of data set: cell-based, human. On the procedure: The Annexin V-FITC-A/PI apoptosis detection kit was induced to test the further role of compound 4g in inhibiting WM9 cell death (Figure 2). Before undergoing the flow cytometry, the WM9 cells were treated with 0 and 2.5 µM compound 4g for 24 h, and then Annexin V-FITC and PI were put into use.
For apoptosis analysis, WM9 cells were incubated with compounds or DMSO as a vehicle control for 24 h. Cells were then washed with cold PBS, stained with Annexin V-FITC and Propidium Iodide (PI) using apoptosis detection Kit (BD Biosciences, Bergen, NJ, USA).
Figure 2 Compound 4g induced apoptosis in WM9 cells. WM9 cells were stained with Annexin V-FITC and PI by incubating at room temperature for 15 min after treated cells with 2.5 µM 4g for 24 h. Finally, apoptosis analysis was carried out by flow cytometry. TEXT PRINTED IN THE PICTURE: Y-37: WM9 24h: Q4-UL 1.2% (2.5 μM); WM9 24h: Q4-UR 8.8% (2.5 μM); WM9 24h: Q4-LL 74.2% (2.5 μM); WM9 24h: Q4-LR 15.8% (2.5 μM) DOUBTS OF THE COPYIST ABOUT THIS PICTURE: Y-37, Q4-UR: 8.8% or 6.8%; the first digit is partly hidden by plotted points / The Control plot also prints quadrant percentages (Q4-UL 0.7%, Q4-UR 0.0%, Q4-LL 98.9%, Q4-LR 0.3%). They are not listed because Control is not a substance.
Background: Flow cytometry measures light scatter and fluorescence of single cells or particles in a stream.

The next data set concerns Bcl-xl. As to the kind of experiment: Western blot of apoptosis indicators, Bcl-xl. Format: cell-based, human. Particulars: WM9 cells, 2.5 µM, 24 h. As for the experimental part:
(§5) Western blot analysis was induced to elucidate the effect of compound 4g on protein levels to further expatiate how compound 4g induces apoptosis in WM9 cells (Figure 3). The Bcl-xl, Bcl-2 and Survivin display repressor activities in cell death.
(§6) The total protein was collected from WM9 cells using RIPA lysis buffer, and separated on 10% SDS Page, as described. The protein was then transferred to polyvinylidene fluoride (PVDF, 0.2 µm) membrane, and blocked by 5% BSA solution for 2 h at room temperature. The membrane was then incubated with specific primary antibodies overnight at 4 °C, followed by incubation with corresponding HRP-conjugated secondary antibodies for 2 h at room temperature. Expression of particular proteins was measured by applying ECL select substrate (Li-Cor, Lincoln, NE, USA). Polyclonal rabbit antibody for Bcl-2 was obtained from Abcam (Abcam, Cambridge, UK); Bcl-xl, Survivin, Casepase-3 and PARP antibodies from Cell Signalling Technology (CST, Danvers, MA, USA) and GAPDH from Goodhere Biotechnology (Hangzhou, Zhejiang, China).
(§7) Figure 3 Fangchinoline derivative 4g affects the protein levels of the apoptotic genes in WM9 cell line. […] WM9 cells were treated with 2.5 μM 4g for 24 h.

The next data set relates to Survivin. Description: Western blot of apoptosis indicators, Survivin. The note with it: WM9 cells, 2.5 µM, 24 h. Type of data set: cell-based, human. On the procedure:
as §5, §6, §7
For orientation: A western blot detects proteins with antibodies after separation by electrophoresis.

The next data set deals with Bcl-2. As to the kind of experiment: Western blot of apoptosis indicators, Bcl-2. The note with it: WM9 cells, 2.5 µM, 24 h. Type of data set: cell-based, human. On the procedure:
as §5, §6, §7

The next data set deals with Caspase-3. As to the kind of experiment: Western blot of apoptosis indicators, Caspase-3. The note with it: WM9 cells, 2.5 µM, 24 h. Format: cell-based, human. On the procedure:
as §5, §6, §7

The next data set has as its system PARP. Description: Western blot of apoptosis indicators, PARP. Format: cell-based, human. The note with it: WM9 cells, 2.5 µM, 24 h. As for the experimental part: as §5, §6, §7
Data set [8] deals with human hepatocellular carcinoma cell line HepG2. On the set-up: method as in PMID 21418191. The note with it: autophagy induction at relatively low concentrations; cited from earlier work.
The test system of data set [9] is human hepatocellular carcinoma cell line PLC/PRF/5. On the set-up: method as in PMID 21418191. The note with it: autophagy induction at relatively low concentrations; cited from earlier work.

pIC50: −log10 of the molar value. Read-outs that look alike come from different tables or passages of the source.

The IC50 is the concentration at which inhibition is half-maximal. As to `COc1cc([N+](=O)[O-])c2cc1Oc1ccc(cc1)C[C@H]1c3cc(c(OC)cc3CCN1C)Oc1c(OC(=O)c3ccccc3)c(OC)cc3c1[C@H](C2)N(C)CC3` [Compound 4g, 7-O-Benzoyl-14-nitro-fangchinoline], the IC50 amounted to 1.98 µM in data set [1] (MTT assay after 48 h of treatment, averaged from at least 3 independent experiments, variation ±10%); 2.03 µM in data set [2] (PC-3, MTT assay after 48 h of treatment, averaged from at least 3 independent experiments, variation ±10%); 1.07 µM in data set [3] (WM9, MTT assay after 48 h of treatment, averaged from at least 3 independent experiments, variation ±10%); 2.09 µM in data set [4] (K562, MTT assay after 48 h of treatment, averaged from at least 3 independent experiments, variation ±10%); 2.92 µM in data set [5] (MDA-MB-231, MTT assay after 48 h of treatment, averaged from at least 3 independent experiments, variation ±10%). Further, the “times more active than first stage derivative 3i on WM9” value in data set [3] (WM9 IC50 ratio versus 3i) is listed as 2.5 times. In addition, in data set [3] (WM9 IC50 ratio versus fangchinoline), the “times more active than fangchinoline on WM9” value is on record as 12.2 times. The “times more active than vincristine on WM9” value in data set [3] (WM9 IC50 ratio versus vincristine) worked out at 9.8 times. Also, the IC50 at 2 days in data set [6] turned out to be 5 µM. The “fold lower toxicity on HL7702 than inhibition on cancer cell lines” value in data set [7] is reported as around 5 fold. Moreover, in the data set on WM9 cells (control 0.0%), the “WM9 cells in the early apoptosis state” value is 8.8%. In addition, the “WM9 cells in the late apoptosis state” value with WM9 cells (control 0.3%) was determined as 15.8%. In addition, the “Bcl-xl expression (Western blot)” value in the data set on Bcl-xl is “inhibited”. Further, the “Survivin expression (Western blot)” value in the data set with Survivin is “inhibited”. The “Bcl-2 expression (Western blot)” value with Bcl-2 was “inhibited”. In addition, the “Pro-Caspase-3 / Cleaved-Caspase-3 (Western blot)” value in the data set on Caspase-3 was “activation of executioner from Pro-Caspase-3 to Cleaved-Caspase-3”. Further, the “full-length PARP level (Western blot)” value with PARP is on record as “down-regulation of full-length PARP”.
The term pIC50 denotes −log10 of the IC50, conventionally taken in molar units. On to `COc1ccc2cc1Oc1ccc(cc1)C[C@H]1c3cc(c(OC)cc3CCN1C)Oc1c(O)c(OC)cc3c1[C@H](C2)N(C)CC3` [Fangchinoline], for which the IC50 in [1] (48 h) stood at 8.95 µM; in [2] (PC-3, 48 h) it was 11.1 µM; in data set [3] (WM9, 48 h), 13.1 µM; in data set [4] (K562, 48 h), 10.3 µM; in data set [5] (MDA-MB-231, 48 h), 12.3 µM. Moreover, the pIC50 in data set [8] and in data set [9] was around 5.30 each time.
